Results taken from patent US7829542B2, “Prophylactic and therapeutic treatment of infectious and other diseases with immunoeffector compounds” (Corixa Corporation, priority 2002, dated 2010).

How the values were obtained:
[1] = tested on: Influenza A/HK/68; test: Protection against lethal influenza challenge by prophylactic administration; assay type: in vivo, BALB/c mice; conditions: 20 μg intranasally 48 hours prior to lethal intranasal challenge (5 LD50)
Procedure: This example provides experiments evaluating protection against a lethal challenge with influenza in cyclic AGP-treated mice. BALB/c mice (10 mice per group) were treated intranasally with 20 μg of the compounds of examples 1, 2 and 3, or with MPL, 48 hours prior to an lethal intranasal challenge of Influenza A/HK/68 (5 LD50). Protection was judged by survival, observations of clinical symptoms (ruffled fur, hunched posture and labored breathing), and prevention of weight loss for 21 days following the challenge.

[2] = tested on: L. monocytogenes 10403 serotype; test: Murine Listeria monocytogenes challenge model (induction of non-specific resistance); assay type: in vivo, mice; conditions: 1 μg intravenously in 0.2% TEOA, i.v. challenge with ~10^5 L. monocytogenes two days later, spleen CFUs two days after challenge
Procedure: This example provides experiments evaluating the induction of non-specific resistance in the murine Listeria monocytogenes challenge model performed using the compounds prepared in examples 1, 2 and 3. Mice (5 per group) were treated intravenously with the 1 μg of a cyclic AGP or MPL solublized in 0.2% triethanolamine (TEOA). Two days later the mice were challenged intravenously with a ˜10^5 L. monocytogenes 10403 serotype (stock culture provided by Jory Baldridge, Washington State University, Pullman, Wash.). Two days after the challenge the mice were sacrificed and the number of colony forming units (CFUs) in the spleens of individual mice were determined by plating 10-fold serial dilutions of splenic homogenates on tryptic soy agar plates. The degree of protection afforded by a given AGP or MPL was calculated by subtracting the average number of bacteria per spleen (log 10 value) in the group of mice treated with a given compound, from the average number of bacteria per spleen (log 10 value) in a control group that was “sham” treated with vehicle (0.2% TEOA) prior to challenge with L. monocytogenes.

| Molecule | protection compared with the vehicle control (in words) [1] | survival rate ([1]; followed for 21 days) [%] | degree of protection: average bacteria per spleen (log 10) in the vehicle control group minus that in the treated group [2] [log 10 units] | survival (in words) ([1]; followed for 21 days) |
| --- | --- | --- | --- | --- |
| CCCCCCCCCCCC(=O)O[C@H](CCCCCCCCCCC)CC(=O)N[C@H]1[C@H](OC[C@@H]2CCCN2C(=O)C[C@@H](CCCCCCCCCCC)OC(=O)CCCCCCCCCCC)O[C@H](CO)[C@@H](OP(=O)(O)O)[C@@H]1OC(=O)C[C@@H](CCCCCCCCCCC)OC(=O)CCCCCCCCCCC.CCN(CC)CC [Example 2, N-[(R)-3-Dodecanoyloxytetradecanoyl]-(S)-2-pyrrolidinylmethyl 2-Deoxy-4-O-phosphono-2-[(R)-3-dodecanoyloxy-tetradecanoylamino]-3-O-[(R)-3-dodecanoyloxytetradecanoyl]-β-D-glucopyranoside Triethylammonium Salt] | enhanced protection | 40 | 0.7 |  |
| CCCCCCCCCCC[C@H](CC(=O)N[C@H]1[C@H](OC[C@@H]2CCCN2C(=O)C[C@@H](CCCCCCCCCCC)OC(=O)CCCCCCCCC)O[C@H](CO)[C@@H](OP(=O)(O)O)[C@@H]1OC(=O)C[C@@H](CCCCCCCCCCC)OC(=O)CCCCCCCCC)OC(=O)CCCCCCCCC.CCN(CC)CC [Example 3, N-[(R)-3-Decanoyloxytetradecanoyl]-(S)-2-pyrrolidinylmethyl 2-Deoxy-4-O-phosphono-2-[(R)-3-Decanoyloxytetradecanoylamino]-3-O-[(R)-3-Decanoyloxytetradecanoyl]-β-D-glucopyranoside Triethylammonium Salt] | enhanced protection | 60 | ~0.9 |  |
| N-[(R)-3-Tetradecanoyloxytetradecanoyl]-(S)-2-pyrrolidinylmethyl 2-Deoxy-4-O-phosphono-2-[(R)-3-tetradecanoyloxytetradecanoylamino]-3-O-[(R)-3-tetradecanoyloxytetradecanoyl]-β-D-glucopyranoside Triethylammonium Salt [Example 1] |  |  | 0.2 | No mice treated with the compound of example 1 survived |
